# Assays:
# [1] = Rat liver microsomal stability; type: in vitro ADME; settings: SD, rat, liver microsomes, read-out: Rat_SD/Microsomes t1/2 (m)
# Protocol: The rat liver microsomal stability, parallel artificial membrane permeability assay (PAMPA), and aqueous kinetic solubility assay in phosphate-buffered saline (PBS) buffer were performed as described in the indicated references.
# NOX1 = biological target: T1, NOX1 (Homo sapiens, UniProt Q9Y5S8); test: Expi293 whole cell assay, NOX1 overexpression; type: cell-based; settings: highest dose about 100x the IC50 versus NOX2
# T1 construct: expressed in transfected cells; host or cells: Expi293 (human embryonic kidney) cells, transient transfection
# T1 sequence (Q9Y5S8 1-564): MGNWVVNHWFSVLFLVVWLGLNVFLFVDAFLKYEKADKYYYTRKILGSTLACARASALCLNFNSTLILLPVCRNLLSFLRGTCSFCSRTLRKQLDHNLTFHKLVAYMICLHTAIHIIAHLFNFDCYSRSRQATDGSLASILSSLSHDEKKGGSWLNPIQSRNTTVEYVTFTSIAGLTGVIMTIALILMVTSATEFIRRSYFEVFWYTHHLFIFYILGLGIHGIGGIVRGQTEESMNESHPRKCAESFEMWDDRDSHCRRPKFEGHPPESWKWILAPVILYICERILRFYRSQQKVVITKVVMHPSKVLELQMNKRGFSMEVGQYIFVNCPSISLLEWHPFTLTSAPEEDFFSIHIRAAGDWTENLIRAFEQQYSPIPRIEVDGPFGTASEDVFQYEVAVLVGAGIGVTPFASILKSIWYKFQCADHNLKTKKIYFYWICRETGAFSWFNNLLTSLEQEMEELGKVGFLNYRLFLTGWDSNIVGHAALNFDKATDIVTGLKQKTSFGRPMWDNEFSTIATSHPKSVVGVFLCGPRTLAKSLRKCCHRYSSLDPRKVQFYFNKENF
# T1 sequence (P13498 2-195 partner limits assumed): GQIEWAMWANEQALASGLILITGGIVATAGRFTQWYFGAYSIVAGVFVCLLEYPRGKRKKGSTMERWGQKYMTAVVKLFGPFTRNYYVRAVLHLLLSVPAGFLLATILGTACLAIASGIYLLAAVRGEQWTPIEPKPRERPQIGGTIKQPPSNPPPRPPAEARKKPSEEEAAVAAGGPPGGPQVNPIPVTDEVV
# Protocol: (§1) Given concerns about previous assays for specific NOX family members we here report the first use of the Expi293 Expression System (Thermo Scientific) to overexpress NOX1, 2, 3, 4, and 5 in excess of any endogenous NOX proteins present in these cells. Transfections were performed following the manufacturer's instructions using the plasmids for each NOX as described in Supplemental Table 2 except that the enhancer solution provided with the Expi293 system was not used because it promoted enzyme activation.
# (§2) After the times indicated in Supplemental Table 2, cells were washed and 50,000 added per well of a white 96-well plate (Greiner) along with 50 μM Luminol and 2.5 U horseradish peroxidase/mL in a volume of 90 μl for NOX1, NOX2, and NOX5. Inhibitors or vehicle controls were added and cells were incubated for 20 min at 37 °C prior to activation with the indicated stimuli. For NOX3 and NOX4 (constitutively active), cells were incubated with inhibitor or vehicle control prior to the addition of luminol and HRP. Chemiluminescence was measured every 2 min for 1 s per well at 37 °C in a Varioscan Multimode reader. AUC data were analyzed using GraphPad Prism using non-linear regression analysis after expressing relative to control alone (maximum ROS production).
# NOX3 = biological target: T2, NOX3 (Homo sapiens, UniProt Q9HBY0); test: Expi293 whole cell assay, NOX3 overexpression; type: cell-based; settings: doses 100x higher than GSK2795039
# T2 construct: expressed in transfected cells; host or cells: Expi293 (human embryonic kidney) cells, transient transfection
# T2 sequence (Q9HBY0 1-568): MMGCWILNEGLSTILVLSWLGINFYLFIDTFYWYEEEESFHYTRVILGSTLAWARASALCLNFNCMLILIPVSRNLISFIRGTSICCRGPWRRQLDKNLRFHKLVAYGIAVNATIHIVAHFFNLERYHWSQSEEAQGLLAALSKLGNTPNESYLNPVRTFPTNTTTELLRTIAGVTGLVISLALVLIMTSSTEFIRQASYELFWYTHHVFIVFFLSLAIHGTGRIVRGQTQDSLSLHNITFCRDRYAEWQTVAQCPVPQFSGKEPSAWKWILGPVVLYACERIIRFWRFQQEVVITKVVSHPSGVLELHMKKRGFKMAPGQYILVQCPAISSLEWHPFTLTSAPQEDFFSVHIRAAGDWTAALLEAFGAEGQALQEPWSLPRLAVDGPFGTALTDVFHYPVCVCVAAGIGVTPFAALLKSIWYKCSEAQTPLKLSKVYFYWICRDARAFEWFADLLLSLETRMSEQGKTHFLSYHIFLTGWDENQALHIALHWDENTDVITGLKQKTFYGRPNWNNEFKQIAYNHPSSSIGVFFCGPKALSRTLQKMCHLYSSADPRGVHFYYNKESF
# T2 sequence (P13498 2-195 partner limits assumed): T1 sequence (P13498 2-195 partner limits assumed)
# Protocol: as §1, §2
# [2] = test system: NOX3 reconstituted with p47phox and p67phox; test: NOX3 reconstituted with cytosolic phox proteins (p47phox and p67phox), data not shown; type: cell-based
# Text: Another experiment (data not shown) examined the potency of NCATS-SM7270 against NOX1 and NOX3 reconstituted with cytosolic phox proteins (p47phox and p67phox).
smiles,measurement,setting,value
"Cn1ccc(S(=O)(=O)Nc2ccnc3c2c(-c2ccc4ccn(C)c4c2)cn3C2CC2)n1 [NCATS-SM7270, N-(1-cyclopropyl-3-(1-methyl-1H-indol-6-yl)-1H-pyrrolo [2,3-b]pyridin-4-yl)-1-methyl-1H-pyrazole-3-sulfonamide]",half-life,[1],3.7 min
same,activity against NOX1,NOX1,only marginal activity at the highest dose tested
same,activity against NOX3,NOX3,no detectable activity
same,dose needed to observe inhibition of NOX3 versus NOX2,[2],~10 fold
